Here are results for 20 molecules from the SangsterLogP compilation.

Turning to `Cc1cccnc1NS(=O)(=O)c1ccc(N)cc1`, the logP (as a rule, a log measure of how a compound divides between an organic and an aqueous phase) is 0.26.
Then `Cc1cnc(NS(=O)(=O)c2ccc(N)cc2)nc1`, with 0.17.
In turn, `Cc1cc(Br)cnc1NS(=O)(=O)c1ccc(N)cc1` returned a logP of 2.05.
Then `Cc1ccc(NS(=O)(=O)c2ccc(N)cc2)nc1`, with 0.49.
With `Nc1ccc(S(=O)(=O)Nc2ccc(Cl)nc2)cc1` the figure was 2.24; with `Nc1ccc(S(=O)(=O)Nc2ncc(Cl)cc2Cl)cc1`, 1.97.
Regarding `N#Cc1cccnc1NS(=O)(=O)c1ccc(N)cc1`, the logP stood at 0.15.
Then `Nc1ccc(S(=O)(=O)Nc2ncc(Br)cc2Br)cc1`, with 2.74.
Then `Nc1ccc(S(=O)(=O)Nc2ccccc2[N+](=O)[O-])cc1`, with 1.76; and `Nc1ccc(S(=O)(=O)Nc2ccccc2Cl)cc1`, with 2.
Then `Cc1cnc(NS(=O)(=O)c2ccc(N)cc2)c(Br)c1`, with 1.79.
`Nc1ccc(S(=O)(=O)Nc2cccnc2Cl)cc1` came in with a logP of 1.58.
Then `Nc1ccc(S(=O)(=O)Nc2ncccc2Cl)cc1`, with 0.82; and `COc1ccccc1NS(=O)(=O)c1ccc(N)cc1`, with 1.56.
Then `Nc1ccc(S(=O)(=O)Nc2ncccc2Br)cc1`, with 1.24; and `CCc1cnc(NS(=O)(=O)c2ccc(N)cc2)nc1`, with 0.84; and `Nc1ccc(S(=O)(=O)Nc2ccc(Br)cn2)cc1`, with 2.3.
Molecule `Cc1ccccc1NS(=O)(=O)c1ccc(N)cc1` had a logP of 2.03.
Regarding `Nc1ccc(S(=O)(=O)Nc2ccc(Cl)cn2)cc1`, the logP worked out at 1.82.
Molecule `CN(C)c1ccc(NS(=O)(=O)c2ccc(N)cc2)nc1` displayed a logP of 1.23.
